Reference: paper PMC9299640, “Incorporation of β‐Alanine in Cu(II) ATCUN Peptide Complexes Increases ROS Levels, DNA Cleavage and Antiproliferative Activity” (Chemistry (Weinheim an Der Bergstrasse, Germany), 2021)

What was measured:
[1] = tested on: HCT116 (colorectal carcinoma); test: Antiproliferative activity, sulforhodamine B (SRB) assay; type: cell-based, human; conditions: after treatment with 70 μM, 72 h
Method: (§1) The antiproliferative activity of selected Cu(II) ATCUN complexes was investigated towards different tumor cell lines (HCT116, NCI-H460, SiHa and SW480 cells) and expressed as the IC50 values.
(§2) Table S13. Accumulation of Cu in HCT116 cells after 24 h incubation with Cu-GGH, 1, 3, 4 and CuCl2 (70 µM) as determined by ICP-MS (n = 3), and cytotoxic activity in human cancer cell lines HCT116, NCI-H460, SiHa and SW480 expressed as the IC50 ± SD (in µM) as well as by the residual viable cells after treatment with 70 μM of the respective compound (%) as determined by the SRB assay (exposure time 72 h). accumulated Cu IC50 values […]
(§3) a – indicates no antiproliferative activity observed after treatment with the respective compound at 70 μM for 72 h.
(§4) S-12.1 Determination of IC50 values against HCT116, NCI-H460, SiHa and SW480 […]
(§5) HCT116, SW480 and NCI-H460 cells were supplied by ATCC, while SiHa cells were supplied by Dr. David Cowan, of the Ontario Cancer Institute, Canada. The cells were grown in α-MEM (Life Technologies) supplemented with 5% fetal calf serum (Moregate Biotech) at 37 °C in a humidified incubator with 5% CO2. […]
(§6) in 96-well plates and left to settle for 24 h. Compounds were added as water solutions to the plates in a series of 3-fold dilutions for 72 h before the assay was terminated by addition of 10% trichloroacetic acid (Merck Millipore) at 4 °C for 1 h. Cells were stained […]
(§7) with 0.4% sulforhodamine B (Sigma-Aldrich) in 1% acetic acid for 30 min in the dark at room temperature and then washed with 1% acetic acid to remove unbound dye. The stain was dissolved in unbuffered Tris base (10 mM, Serva) for 30 min on a plate shaker in the dark and quantified on a BioTek EL808 microplate reader at an absorbance of 490 nm with a reference wavelength of 450 nm to determine the percentage of cell-growth inhibition by determining the absorbance of each sample relative to a negative (no inhibitor) and a no-growth control (day 0). IC50 values were calculated with SigmaPlot 12.5 (Systat Software Inc.) using a three-parameter logistic sigmoidal dose−response curve between the calculated growth inhibition and the compound concentration. The presented IC50 values are the mean of at least three independent experiments, where 10 concentrations were tested in duplicate for each compound.
(§8) Ventures), by diluting with a matrix-matched solution with regard to HNO3 and Tm concentration, producing calibration standards with concentrations of 0.5, 1, 3, 5, 7, 10, […]
(§9) The measured Cu concentrations in the cell accumulation samples were in the range of 27–82 μg/L. The reported values are the means of at least three independent accumulation experiments conducted in triplicates with blank wells for each substance to account for unspecific binding of the Cu(II) complexes to the plastic of the well plates.
(§10) Accumulation values have been corrected by subtracting the average amount Cu determined in the cell-free wells.
(§11) Calibration curves for Cu were prepared with concentrations ranging from 0.5–100 µg/L. The limit of detection (LOD) was defined as 3 times the random error in the y-direction (Sy/x) of the calibration curve divided by the slope of the calibration curve. The limit of quantification (LOQ) was defined as 10 times the random error in the y-direction (Sy/x) of the calibration curve divided by the slope of the calibration curve.42 The LOD was determined for Cu as 1.8 μg/L and the LOQ was 5.95 μg/L.

[2] = tested on: NCI-H460 (non-small cell lung carcinoma); test: as above; type: cell-based, human; conditions: after treatment with 70 μM, 72 h
Method: as §1, §2, §3, §4, §5, §6, §7, §8, §9, §10, §11

[3] = tested on: SW480 (colon adenocarcinoma); test: as above; type: cell-based, human; conditions: after treatment with 70 μM, 72 h
Method: as §1, §2, §3, §4, §5, §6, §7, §8, §9, §10, §11

[4] = tested on: SiHa (cervical carcinoma); test: as above; type: cell-based, human; conditions: after treatment with 70 μM, 72 h
Method: as §1, §2, §3, §4, §5, §6, §7, §8, §9, §10, §11

[5] = pH 7.4, competitivity index (CI) method; cited from earlier work
Method: Table 1 CI values calculated at pH 7.4 for Cu(II) complexes 1–7 of peptides a–g (1 mM Cu(II), peptides L and virtual competitive ligand Z) based on respective stability constants. […] The high stability of Cu−GGH (CI7.4=12.4)[14] and the novel Cu(II) Gly2−ATCUN complexes 1 and 2 (CI7.4 13.61 and […], Table 1) by formation of 5,5,6‐chelates is assumed to be res ...

plasmid DNA pBR322 = conditions: 50 μM complex (Cu(II):peptide 1:1.25), pBR322 0.2 μg, MOPS 50 mM pH 7.4, ascH− 1 mM, 1 h, 37 °C; at least three experiments
Method: The influence of Gly2 and β‐Ala2 in the ATCUN motif of complexes 1–7 on the oxidative plasmid DNA cleavage activity was tested by means of gel electrophoresis. […] In Figure 3 the nuclease activity of in situ prepared 1–7, Cu−GGH and CuCl2 in the presence of ascH^− as reducing agent is shown (pH 7.4, 37 °C).
Figure 3 (Top) Nuclease activity towards plasmid DNA pBR322 (0.2 μg) of Cu(II) ATCUN complexes Cu−GGH, 1–7 (50 μM) and CuCl2 in MOPS buffer (50 mM, pH 7.4) in the presence of ascH^− (1 mM) after incubation for 1 h at 37 °C. Lane 1: DNA ladder (form I, II and III), lane 2: DNA reference, lanes 3–10 as indicated, lane 11: CuCl2. (Bottom) Visualization of the extent of DNA cleavage in percent. Error bars represent the standard deviation from at least three experiments.
A suitable concentration at which DNA forms II and III are visible, was determined to be 35 μM through a concentration‐dependent DNA cleavage experiment (S‐6.2, 0–50 μM).
All DNA cleavage experiments were
performed at least in triplicate in order to ensure reproducibility. The standard deviations
are represented as the error bars.
The in situ prepared complexes 1–7 (50 µM CuCl2 / 62.5 µM ligand, Cu(II):peptide = 1:1.25,
see S-4) and their corresponding ligands a–g (62.5 µM) were incubated with plasmid DNA […]
(form II), and linear (Form III) DNA were visualized by fluorescence imaging of […]

[6] = tested on: Ehrlich ascites tumor cells; conditions: cited from earlier work
Description: Cowan et al. reported Cu(II) ATCUN complexes with anticancer, ‐viral, and ‐microbial activity as well as for DNA cleavage and enzyme inhibition.[3, 16, 17]

HCT116 cells = test: Cellular uptake of Cu by ICP-MS; type: cell-based, human; conditions: HCT116, 70 μM, 24 h
Method: We aimed to correlate the antiproliferative activity to the accumulation of Cu in HCT116 cells. Therefore, cells were treated for 24 h with complexes Cu−GGH, 1, 3, 4 and CuCl2 (70 μM), and the Cu content of the samples was determined by ICP‐MS (Table S13). […] The higher Cu contents probably lead to enhanced oxidative stress levels in cells, which consequently results in higher antiproliferative activity.
The antiproliferative activity of selected Cu(II) ATCUN complexes was investigated towards different tumor cell lines (HCT116, NCI-H460, SiHa and SW480 cells) and expressed as the IC50 values. Additionally, cellular uptake studies in HCT116 tumor cells were carried out and the amount of Cu was determined with inductively coupled plasma mass spectrometry (ICP-MS).
Table S13. […]
with 0.4% sulforhodamine B (Sigma-Aldrich) in 1% acetic acid for 30 min in the dark at room temperature and then washed with 1% acetic acid to remove unbound dye. The stain was dissolved in unbuffered Tris base (10 mM, Serva) for 30 min on a plate shaker in the dark and quantified on a BioTek EL808 microplate reader at an absorbance of 490 nm with a reference wavelength of 450 nm to determine the percentage of cell-growth inhibition by determining the absorbance of each sample relative to a negative (no inhibitor) and a no-growth control (day 0). […]

**Q.** Which results are given for “NH2−Gly−Gly−His−COOH [Cu−GGH, reference compound]”?
**A.** residual viable cells HCT116 [1]: 66 ± 21%; residual viable cells NCI-H460 [2]: 74 ± 9%; residual viable cells SW480 [3]: 73 ± 17%; residual viable cells SiHa [4]: – (indicates no antiproliferative activity observed after treatment with the respective compound at 70 μM for 72 h); log K 7.4 / CI7.4 of Cu(II) complex [5]: 12.4; extent of DNA cleavage, form II (plasmid DNA pBR322): ~90%; antitumor effect in vivo (in words) [6]: killed Ehrlich ascites tumor cells in vivo; cellular uptake (accumulated Cu content), approximate values (HCT116 cells): ~0.3 μg Cu/4×10^5 cells
